Laboratory results published in patent publication US20120130078A1, “INDAZOLE DERIVATIVES AS ADENOSINE MONOPHOSPHATE DEAMINASE (AMPD) INHIBITORS FOR USE IN DIABETES AND RELATED DISEASES OF METABOLIC SYNDROME” (priority 2010, published 2012).

Key:
[1] = test system: L6 cells; experiment: Palmitate (fatty acid) oxidation assay in L6 cells; type: cell-based; details: FIG. 2, 3, 11
Protocol: Palmitate oxidation was determined by a modification of quantitative measuring the rate of ^14CO2 production from ^14C-labeled palmitic acid as described previously (24). The KHB for these incubations was supplemented with fatty-acid poor albumin, dialyzed against the same buffer (three changes). The final albumin concentration was 1%. After an initial 10 min of incubation, all samples received 2 mM carnitine and [1-^14C]-palmitic acid (1 μCi/mole), and other additions as noted, and incubations continued to the end of 3 h. Aliquots of 0.8 mL were taken from each well to an eppendorf tube. […] 200 μL of 3 M perchloric acid was carefully added to the 0.8 mL to ensure no acid was deposited on the side of the tube, and the lid was quickly closed. The tubes were incubated overnight to allow the [^14C] CO2 to be absorbed into the wick. The caps were removed with scissors and placed in 10 mL of liquid scintillation fluid for counting.

[2] = test system: L6 cells; experiment: Glucose uptake assay (2-deoxyglucose uptake) in L6 cells; type: cell-based; details: FIG. 1, 4, 10
Protocol: Glucose uptake was determined as the rate of 2-deoxy-D-[2,6-^3H]glucose uptake, using modification of a previous method (15). The cells were first incubated for 15 min with Krebs-Henseleit Bicarbonate buffer (KHB), glucose, and other agents as indicated. At this point, the labeled deoxyglucose (0.6 μCi) was added to each well and the incubation continued for 45 min. The media was aspirated, and the wells were washed three times with ice-cold KHB to remove exogenous label. The cells were lysed by the addition of 0.1% Triton-X100 (1 mL). Samples of each well were mixed with aqueous scintillation fluid and measured by liquid scintillation counting.

[3] = test system: L6 cells; experiment: Ammonia assay, ammonia formation by intact cells; type: cell-based; details: FIG. 7, 12
Protocol: Ammonia was measured as described by Kun et al. (19). Briefly, after two hours incubation with or without 10 mM metformin, 0.5 mL of samples were added into cuvette and mixed with assay reagents (100 mM Tris buffer, 10 mM α-ketoglutaric acid, 0.24 mM NADH in 1 mL). Absorbance was measured at 340 nm with spectro-photometer (Hitachi, U-2000). 20 μL of glutamate dehydrogenase (200 μg/mL) was added into cuvette and mixed, and absorbance was measured again after 1 hour at 340 nm.

[4] = test system: AMP deaminase (AMPD); experiment: AMP deaminase enzymatic assay (in vitro); type: biochemical; details: for AMPD inhibition, comparison of three synthesized compounds: FIG. 9
Protocol: AMP deaminase activity was measured as described by Ashby and Frieden (4). Standard assay monitored the absorbance change at 285 nm as a result of AMP conversion to IMP in a reaction volume of 2 mL containing 50 mM imidazole-HCl (pH 7.0), 2 mM AMP and 150 mM KCl. One unit of enzyme activity is defined as the amount of protein required to produce 1 μmol IMP per min at 25° C. under standard conditions.

[5] = test system: L6 muscle cell line; experiment: Glycogen synthesis in L6 muscle cell line; type: cell-based
[6] = test system: AMPK; experiment: Phosphorylation of AMPK; type: cell-based
[7] = test system: acetyl CoA carboxylase; experiment: Phosphorylation of acetyl CoA carboxylase; type: cell-based
[8] = test system: cells with adenylate kinase knockout; experiment: Metformin action in cells with adenylate kinase knockout (siRNA); type: cell-based; details: adenylate kinase knockout using siRNA; FIG. 5
[9] = test system: L6 muscle cell line; experiment: Lactate formation in L6 muscle cell line; type: cell-based

| Structure (SMILES) | palmitate / fatty acid oxidation [1] | glucose transport / glucose uptake [2] | ammonia formation [3] | AMPD inhibition, comparison of three synthesized compounds [4] | other results |
| --- | --- | --- | --- | --- | --- |
| [NH-]c1c[n+](N2CCOCC2)no1 [SIN-1] | inhibits fatty acid oxidation | stimulation of glucose transport | – | – | – |
| C=C(C)[C@H]1Cc2c(ccc3c2O[C@@H]2COc4cc(OC)c(OC)cc4[C@@H]2C3=O)O1 [rotenone] | leads only to inhibition of fatty acid oxidation | does increase glucose uptake | – | – | – |
| COC(=O)c1n[nH]c2ccccc12 [SKTT-2, methyl 1H-indazole-3-carboxylate] | replicated the metformin stimulation of fatty acid oxidation | stimulated glucose uptake | suppressed ammonia formation | similar | – |
| NC(=O)c1n[nH]c2ccccc12 [SKTT-1, 1H-indazole-3-carboxamide] | replicated the metformin stimulation of fatty acid oxidation | stimulated glucose uptake | suppressed ammonia formation | similar | AMPD inhibition curves, potency compared with metformin ([4]; FIG. 8, compared with metformin): more potent |
| COC(=O)c1cccc2[nH]ncc12 [SKTT-12, methyl 1H-indazole-4-carboxylate] | – | – | – | somewhat less effective | – |
| CN(C)C(=N)N=C(N)N [metformin] | stimulation | stimulation of glucose transport | decrease in ammonia formation | – | glycogen synthesis [5]: inhibition of glycogen synthesis; phosphorylation of the AMPK [6]: direct phosphorylation of the AMPK; phosphorylation of acetyl CoA carboxylase [7]: phosphorylation; effect of adenylate kinase deletion on metformin action [8]: no effect; AMPD activity measured in vitro ([4]; FIG. 6): inhibited AMPD activity; lactate formation [9]: stimulation |
